Patent publication US4760077A, “Pyrrothine derivatives and pharmaceutical use thereof” (Boehringer Mannheim GmbH, priority 1984, dated 1988)
Where a name gives a salt, the structure may show the parent alone. Read-outs that look alike come from different tables or passages of the source. One block for each molecule: values may come before it.

What was measured:
[1] = tested on: allergen-induced degranulation of peripheral leukocytes; experiment: Inhibition of the allergen-induced degranulation reaction of peripheral leukocytes (method of Siraganian and Hook); type: cell-based; conditions: Homo sapiens, Leukocyte
Protocol: For the detection of the anti-allergic action, there was measured the inhibition of the allergen-induced degranulation reaction of peripheral leukocytes; one operated according to the method of R. P. Siraganian and W. A. Hook (Manual of Clinical Immunology, 2nd edition 1980, pub. N. R. Rose and H. Friedman, Am. Soc. for Microbiology, pages 808 to 821).

[2] = tested on: gram-positive and gram-negative bacteria, pathogenic fungi and protozoa; conditions: Celmer and Solomons, J. Am. Chem. Soc. 77 (1955) 2861; cited from earlier work
mouse [3] = experiment: Toxicity LD50 p.o., mouse; type: in vivo; conditions: thiolutin vs theophylline
mouse [4] = conditions: p.o., Table I, for the toxicity cf. literature named; cited from earlier work
[5] = Table I, 50% inhibition in vitro, read-out: ID50 (the source's name)

IC50 [1, 5]: 2.5 µM
Compound: CC(=O)NC1=C(S)C(=CS)N(C)C1=O [Example 3, 3-Acetamido-4-mercapto-5-mercaptomethylene-1-methylpyrrolin-2-one disodium salt]

IC50 ([1]; Examples 3 to 5, no unit printed at the value, read-out: ID50 (the source's name)): 50 µM
IC50 [1, 5]: 5 µM
Compound: CN(C)C1=C(S)C(=CS)N(C)C1=O [Example 5, 3-Dimethylamino-4-mercapto-5-mercaptomethylene-1-methylpyrrolin-2-one disodium salt]

IC50 [1, 5]: 4.6 µM
Compound: CN(C)c1c2sscc-2n(C)c1=O [Example 4, N,N-Dimethylpyrrothine]

More lines, now with the values behind:

Compound: Cn1c2cssc-2c(N)c1=O [pyrrothine, 4-methyl-6-amino-1,2-dithiolo[4,3-b]pyrrol-5(4H)-one]
IC50 [1, 5]: 0.9 µM

Compound: CCC(=O)Nc1c2sscc-2n(C)c1=O [aureothricin]
IC50 ([1]; read-out: ID50 (the source's name)): 0.9 µM
antibiotic action, in words [2]: action against gram-positive and gram-negative bacteria, pathogenic fungi and protozoa

Compound: CC(=O)Nc1c2sscc-2n(C)c1=O [thiolutin]
IC50 ([1]; read-out: ID50): 0.4 µM
factor of therapeutic index against comparison compound theophylline (mouse [3]): more than 10^4
LD50 (mouse [4]): 25 mg/kg
antibiotic action, in words [2]: action against gram-positive and gram-negative bacteria, pathogenic fungi and protozoa

Compound: CC(C)C(=O)Nc1c2sscc-2n(C)c1=O [isobutyrylpyrrothine]
IC50 [1, 5]: 1.7 µM

Compound: Cn1c(=O)c2[nH]cnc2n(C)c1=O [theophylline, reference compound]
IC50 [1, 5]: 5000 µM
